Data from ChEMBL document CHEMBL4804284.
The source made the active and inactive calls. The calls are words filed in the database; no cut-off is given here.

How the values were obtained:
[1] = target: Serine/threonine-protein kinase tousled-like 2 (Homo sapiens) (UniProt Q86UE8); assay: Inhibition of DNA-tagged human TLK2 assessed as percent of control at 50000 nM by qPCR analysis relative to control; parameters: scale not given: the % may be the effect or the level left
[2] = target: Insulin receptor (Homo sapiens) (UniProt P06213); assay: Inhibition of DNA-tagged human INSR assessed as percent of control at 50000 nM by qPCR analysis relative to control; parameters: scale not given: the % may be the effect or the level left
[3] = target: Serine/threonine-protein kinase D2 (Homo sapiens) (UniProt Q9BZL6); assay: Inhibition of DNA-tagged human PRKD2 assessed as percent of control at 50000 nM by qPCR analysis relative to control; parameters: scale not given: the % may be the effect or the level left
[4] = target: Serine/threonine-protein kinase Nek7 (Homo sapiens) (UniProt Q8TDX7); assay: Inhibition of DNA-tagged human NEK7 assessed as percent of control at 50000 nM by qPCR analysis relative to control; parameters: scale not given: the % may be the effect or the level left
[5] = target: Receptor-interacting serine/threonine-protein kinase 4 (Homo sapiens) (UniProt P57078); assay: Inhibition of DNA-tagged human RIPK4 assessed as percent of control at 50000 nM by qPCR analysis relative to control; parameters: scale not given: the % may be the effect or the level left
[6] = test system: Receptor-type tyrosine-protein kinase FLT3 (Homo sapiens), P36888 [D835Y]; assay: Inhibition of DNA-tagged human FLT3 D835Y mutant assessed as percent of control at 50000 nM by qPCR analysis relative to control; parameters: scale not given: the % may be the effect or the level left
[7] = target: STE20/SPS1-related proline-alanine-rich protein kinase (Homo sapiens) (UniProt Q9UEW8); assay: Inhibition of DNA-tagged human STK39 assessed as percent of control at 50000 nM by qPCR analysis relative to control; parameters: scale not given: the % may be the effect or the level left
[8] = target: Mitogen-activated protein kinase 11 (Homo sapiens) (UniProt Q15759); assay: Inhibition of DNA-tagged human p38-beta assessed as percent of control at 50000 nM by qPCR analysis relative to control; parameters: scale not given: the % may be the effect or the level left
[9] = target: SRSF protein kinase 1 (Homo sapiens) (UniProt Q96SB4); assay: Inhibition of DNA-tagged human SRPK1 assessed as percent of control at 50000 nM by qPCR analysis relative to control; parameters: scale not given: the % may be the effect or the level left
[10] = target: TRAF2 and NCK-interacting protein kinase (Homo sapiens) (UniProt Q9UKE5); assay: Inhibition of DNA-tagged human TNIK assessed as percent of control at 50000 nM by qPCR analysis relative to control; parameters: scale not given: the % may be the effect or the level left
[11] = target: Serine/threonine-protein kinase MAK (Homo sapiens) (UniProt P20794); assay: Inhibition of DNA-tagged human MAK assessed as percent of control at 50000 nM by qPCR analysis relative to control; parameters: scale not given: the % may be the effect or the level left
[12] = target: Tyrosine-protein kinase Fgr (Homo sapiens) (UniProt P09769); assay: Inhibition of DNA-tagged human FGR assessed as percent of control at 50000 nM by qPCR analysis relative to control; parameters: scale not given: the % may be the effect or the level left
[13] = target: Casein kinase I isoform gamma-3 (Homo sapiens) (UniProt Q9Y6M4); assay: Inhibition of DNA-tagged human CSNK1G3 assessed as percent of control at 50000 nM by qPCR analysis relative to control; parameters: scale not given: the % may be the effect or the level left
[14] = target: TGF-beta receptor type-1 (Homo sapiens) (UniProt P36897); assay: Inhibition of DNA-tagged human TGFBR1 assessed as percent of control at 50000 nM by qPCR analysis relative to control; parameters: scale not given: the % may be the effect or the level left
[15] = target: Serine/threonine-protein kinase TBK1 (Homo sapiens) (UniProt Q9UHD2); assay: Inhibition of DNA-tagged human TBK1 assessed as percent of control at 50000 nM by qPCR analysis relative to control; parameters: scale not given: the % may be the effect or the level left
[16] = target: Serine/threonine-protein kinase MARK2 (Homo sapiens) (UniProt Q7KZI7); assay: Inhibition of DNA-tagged human MARK2 assessed as percent of control at 50000 nM by qPCR analysis relative to control; parameters: scale not given: the % may be the effect or the level left
[17] = target: Phosphatidylinositol 4-phosphate 5-kinase type-1 gamma (Homo sapiens) (UniProt O60331); assay: Inhibition of DNA-tagged human PIP5K1C assessed as percent of control at 50000 nM by qPCR analysis relative to control; parameters: scale not given: the % may be the effect or the level left
[18] = target: Myosin-IIIa (Homo sapiens) (UniProt Q8NEV4); assay: Inhibition of DNA-tagged human MYO3A assessed as percent of control at 50000 nM by qPCR analysis relative to control; parameters: scale not given: the % may be the effect or the level left
[19] = test system: Mast/stem cell growth factor receptor Kit (Homo sapiens), P10721 [D816V]; assay: Inhibition of DNA-tagged human KIT D816V mutant assessed as percent of control at 50000 nM by qPCR analysis relative to control; parameters: scale not given: the % may be the effect or the level left
[20] = target: Serine/threonine-protein kinase D1 (Homo sapiens) (UniProt Q15139); assay: Inhibition of DNA-tagged human PRKD1 assessed as percent of control at 50000 nM by qPCR analysis relative to control; parameters: scale not given: the % may be the effect or the level left
[21] = target: Protein kinase C delta type (Homo sapiens) (UniProt Q05655); assay: Inhibition of DNA-tagged human PRKCD assessed as percent of control at 50000 nM by qPCR analysis relative to control; parameters: scale not given: the % may be the effect or the level left
KG-1 = assay: Cytotoxicity against human KG-1 cells at 0.1-100 uM assessed as decrease in cell viability relative to control; format: functional, cell-based
[22] = target: Misshapen-like kinase 1 (Homo sapiens) (UniProt Q8N4C8); assay: Inhibition of DNA-tagged human MINK assessed as percent of control at 50000 nM by qPCR analysis relative to control; parameters: scale not given: the % may be the effect or the level left
[23] = target: Serine/threonine-protein kinase Nek11 (Homo sapiens) (UniProt Q8NG66); assay: Inhibition of DNA-tagged human NEK11 assessed as percent of control at 50000 nM by qPCR analysis relative to control; parameters: scale not given: the % may be the effect or the level left
[24] = target: NUAK family SNF1-like kinase 1 (Homo sapiens) (UniProt O60285); assay: Inhibition of DNA-tagged human ARK5 assessed as percent of control at 50000 nM by qPCR analysis relative to control; parameters: scale not given: the % may be the effect or the level left
[25] = target: Serine/threonine-protein kinase 16 (Homo sapiens) (UniProt O75716); assay: Inhibition of DNA-tagged human STK16 assessed as percent of control at 50000 nM by qPCR analysis relative to control; parameters: scale not given: the % may be the effect or the level left
[26] = target: Epidermal growth factor receptor (Homo sapiens) (UniProt P00533); assay: Inhibition of DNA-tagged human EGFR assessed as percent of control at 50000 nM by qPCR analysis relative to control; parameters: scale not given: the % may be the effect or the level left
[27] = target: Cyclin-dependent kinase-like 5 (Homo sapiens) (UniProt O76039); assay: Inhibition of DNA-tagged human CDKL5 assessed as percent of control at 50000 nM by qPCR analysis relative to control; parameters: scale not given: the % may be the effect or the level left
[28] = target: Mitogen-activated protein kinase 15 (Homo sapiens) (UniProt Q8TD08); assay: Inhibition of DNA-tagged human ERK8 assessed as percent of control at 50000 nM by qPCR analysis relative to control; parameters: scale not given: the % may be the effect or the level left
[29] = target: Serine/threonine-protein kinase Nek9 (Homo sapiens) (UniProt Q8TD19); assay: Inhibition of DNA-tagged human NEK9 assessed as percent of control at 50000 nM by qPCR analysis relative to control; parameters: scale not given: the % may be the effect or the level left

Epidermal growth factor receptor (Homo sapiens), sequence (P00533 whole entry): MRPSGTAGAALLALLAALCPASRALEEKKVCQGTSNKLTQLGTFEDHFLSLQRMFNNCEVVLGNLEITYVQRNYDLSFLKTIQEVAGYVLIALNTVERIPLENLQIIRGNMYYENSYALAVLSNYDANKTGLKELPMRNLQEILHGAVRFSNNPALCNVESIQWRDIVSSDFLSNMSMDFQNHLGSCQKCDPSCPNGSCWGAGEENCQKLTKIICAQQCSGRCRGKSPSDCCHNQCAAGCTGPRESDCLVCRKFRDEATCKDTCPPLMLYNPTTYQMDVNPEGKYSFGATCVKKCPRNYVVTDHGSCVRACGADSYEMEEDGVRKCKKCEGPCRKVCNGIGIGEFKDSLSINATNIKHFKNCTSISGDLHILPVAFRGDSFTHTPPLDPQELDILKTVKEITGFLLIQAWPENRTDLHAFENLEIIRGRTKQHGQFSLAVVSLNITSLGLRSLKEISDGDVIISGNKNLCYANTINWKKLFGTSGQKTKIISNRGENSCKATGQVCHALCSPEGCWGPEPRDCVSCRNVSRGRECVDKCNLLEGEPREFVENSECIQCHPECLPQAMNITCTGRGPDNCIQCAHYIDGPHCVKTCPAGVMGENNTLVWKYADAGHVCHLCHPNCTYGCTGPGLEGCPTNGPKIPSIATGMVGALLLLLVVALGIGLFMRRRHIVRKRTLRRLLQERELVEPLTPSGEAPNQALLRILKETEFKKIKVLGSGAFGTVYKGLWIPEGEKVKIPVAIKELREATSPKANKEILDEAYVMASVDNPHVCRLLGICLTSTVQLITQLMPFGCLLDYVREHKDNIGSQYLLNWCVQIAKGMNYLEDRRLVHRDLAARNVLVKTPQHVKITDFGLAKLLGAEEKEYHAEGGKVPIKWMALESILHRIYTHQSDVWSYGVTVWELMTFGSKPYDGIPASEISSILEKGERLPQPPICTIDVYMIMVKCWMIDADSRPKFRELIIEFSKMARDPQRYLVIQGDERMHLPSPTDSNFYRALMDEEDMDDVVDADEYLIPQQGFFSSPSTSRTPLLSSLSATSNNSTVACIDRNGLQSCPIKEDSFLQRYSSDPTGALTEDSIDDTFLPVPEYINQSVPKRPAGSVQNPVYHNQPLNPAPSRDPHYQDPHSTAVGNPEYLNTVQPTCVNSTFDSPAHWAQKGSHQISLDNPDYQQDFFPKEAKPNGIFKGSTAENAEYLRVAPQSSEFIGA
Serine/threonine-protein kinase TBK1 (Homo sapiens), sequence (Q9UHD2 whole entry): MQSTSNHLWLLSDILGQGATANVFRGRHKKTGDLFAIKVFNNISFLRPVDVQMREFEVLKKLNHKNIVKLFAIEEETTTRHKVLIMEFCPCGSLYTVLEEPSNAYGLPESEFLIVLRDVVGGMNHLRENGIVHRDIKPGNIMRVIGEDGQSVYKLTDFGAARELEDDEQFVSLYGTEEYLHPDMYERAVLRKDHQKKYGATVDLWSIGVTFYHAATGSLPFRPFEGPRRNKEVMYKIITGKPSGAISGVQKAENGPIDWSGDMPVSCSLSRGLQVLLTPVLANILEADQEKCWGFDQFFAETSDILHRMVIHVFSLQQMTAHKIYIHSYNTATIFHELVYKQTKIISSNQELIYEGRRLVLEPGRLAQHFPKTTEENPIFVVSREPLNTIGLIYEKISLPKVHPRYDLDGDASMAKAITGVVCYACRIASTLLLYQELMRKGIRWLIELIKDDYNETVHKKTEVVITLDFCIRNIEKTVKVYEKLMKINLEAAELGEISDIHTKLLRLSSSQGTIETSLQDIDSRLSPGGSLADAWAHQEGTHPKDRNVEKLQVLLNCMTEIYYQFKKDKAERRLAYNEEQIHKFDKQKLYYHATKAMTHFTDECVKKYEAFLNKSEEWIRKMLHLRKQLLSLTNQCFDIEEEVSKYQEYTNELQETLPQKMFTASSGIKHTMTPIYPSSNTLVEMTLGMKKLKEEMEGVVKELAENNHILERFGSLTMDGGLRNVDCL
Myosin-IIIa (Homo sapiens), sequence (Q8NEV4 whole entry): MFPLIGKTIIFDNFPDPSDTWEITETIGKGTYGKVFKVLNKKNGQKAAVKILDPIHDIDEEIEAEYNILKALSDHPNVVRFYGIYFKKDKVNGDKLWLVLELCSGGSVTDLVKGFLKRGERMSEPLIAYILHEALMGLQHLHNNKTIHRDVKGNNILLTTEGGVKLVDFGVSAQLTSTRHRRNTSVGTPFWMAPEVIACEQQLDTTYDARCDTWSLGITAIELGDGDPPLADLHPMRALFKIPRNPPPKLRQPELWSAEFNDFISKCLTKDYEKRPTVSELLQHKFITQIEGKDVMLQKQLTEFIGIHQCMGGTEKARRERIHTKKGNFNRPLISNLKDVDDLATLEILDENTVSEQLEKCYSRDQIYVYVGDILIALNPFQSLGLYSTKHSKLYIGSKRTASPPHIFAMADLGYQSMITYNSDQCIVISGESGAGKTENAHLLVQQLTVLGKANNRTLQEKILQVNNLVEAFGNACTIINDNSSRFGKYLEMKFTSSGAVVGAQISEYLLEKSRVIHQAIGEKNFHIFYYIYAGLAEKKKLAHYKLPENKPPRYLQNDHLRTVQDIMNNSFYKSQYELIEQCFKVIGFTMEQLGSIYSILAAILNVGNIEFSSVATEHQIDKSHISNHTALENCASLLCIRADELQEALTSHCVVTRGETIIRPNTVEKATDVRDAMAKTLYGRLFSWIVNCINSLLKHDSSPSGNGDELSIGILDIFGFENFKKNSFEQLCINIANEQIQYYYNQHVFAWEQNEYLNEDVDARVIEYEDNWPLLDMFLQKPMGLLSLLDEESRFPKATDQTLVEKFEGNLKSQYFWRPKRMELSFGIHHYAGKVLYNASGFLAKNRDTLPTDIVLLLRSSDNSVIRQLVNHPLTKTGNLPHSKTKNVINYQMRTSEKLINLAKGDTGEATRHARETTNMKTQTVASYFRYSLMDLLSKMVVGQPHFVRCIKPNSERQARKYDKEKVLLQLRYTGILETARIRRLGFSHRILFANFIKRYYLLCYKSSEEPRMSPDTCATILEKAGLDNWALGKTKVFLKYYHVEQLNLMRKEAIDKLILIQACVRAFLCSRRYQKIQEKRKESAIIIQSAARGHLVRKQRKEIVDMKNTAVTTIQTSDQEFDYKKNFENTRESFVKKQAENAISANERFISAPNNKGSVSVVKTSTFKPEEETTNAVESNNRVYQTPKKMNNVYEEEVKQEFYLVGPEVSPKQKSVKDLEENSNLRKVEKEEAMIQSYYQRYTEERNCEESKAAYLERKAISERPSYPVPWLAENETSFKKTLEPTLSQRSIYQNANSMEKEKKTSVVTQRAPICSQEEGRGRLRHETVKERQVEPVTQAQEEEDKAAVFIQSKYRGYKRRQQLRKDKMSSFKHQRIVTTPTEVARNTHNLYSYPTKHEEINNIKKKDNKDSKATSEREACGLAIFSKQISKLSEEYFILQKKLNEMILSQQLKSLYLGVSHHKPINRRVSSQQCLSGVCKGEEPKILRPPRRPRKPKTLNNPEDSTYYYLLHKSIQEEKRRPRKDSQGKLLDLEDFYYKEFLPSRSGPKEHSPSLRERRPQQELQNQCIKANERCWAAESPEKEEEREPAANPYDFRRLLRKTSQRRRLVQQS
TRAF2 and NCK-interacting protein kinase (Homo sapiens), sequence (Q9UKE5 whole entry, looked up): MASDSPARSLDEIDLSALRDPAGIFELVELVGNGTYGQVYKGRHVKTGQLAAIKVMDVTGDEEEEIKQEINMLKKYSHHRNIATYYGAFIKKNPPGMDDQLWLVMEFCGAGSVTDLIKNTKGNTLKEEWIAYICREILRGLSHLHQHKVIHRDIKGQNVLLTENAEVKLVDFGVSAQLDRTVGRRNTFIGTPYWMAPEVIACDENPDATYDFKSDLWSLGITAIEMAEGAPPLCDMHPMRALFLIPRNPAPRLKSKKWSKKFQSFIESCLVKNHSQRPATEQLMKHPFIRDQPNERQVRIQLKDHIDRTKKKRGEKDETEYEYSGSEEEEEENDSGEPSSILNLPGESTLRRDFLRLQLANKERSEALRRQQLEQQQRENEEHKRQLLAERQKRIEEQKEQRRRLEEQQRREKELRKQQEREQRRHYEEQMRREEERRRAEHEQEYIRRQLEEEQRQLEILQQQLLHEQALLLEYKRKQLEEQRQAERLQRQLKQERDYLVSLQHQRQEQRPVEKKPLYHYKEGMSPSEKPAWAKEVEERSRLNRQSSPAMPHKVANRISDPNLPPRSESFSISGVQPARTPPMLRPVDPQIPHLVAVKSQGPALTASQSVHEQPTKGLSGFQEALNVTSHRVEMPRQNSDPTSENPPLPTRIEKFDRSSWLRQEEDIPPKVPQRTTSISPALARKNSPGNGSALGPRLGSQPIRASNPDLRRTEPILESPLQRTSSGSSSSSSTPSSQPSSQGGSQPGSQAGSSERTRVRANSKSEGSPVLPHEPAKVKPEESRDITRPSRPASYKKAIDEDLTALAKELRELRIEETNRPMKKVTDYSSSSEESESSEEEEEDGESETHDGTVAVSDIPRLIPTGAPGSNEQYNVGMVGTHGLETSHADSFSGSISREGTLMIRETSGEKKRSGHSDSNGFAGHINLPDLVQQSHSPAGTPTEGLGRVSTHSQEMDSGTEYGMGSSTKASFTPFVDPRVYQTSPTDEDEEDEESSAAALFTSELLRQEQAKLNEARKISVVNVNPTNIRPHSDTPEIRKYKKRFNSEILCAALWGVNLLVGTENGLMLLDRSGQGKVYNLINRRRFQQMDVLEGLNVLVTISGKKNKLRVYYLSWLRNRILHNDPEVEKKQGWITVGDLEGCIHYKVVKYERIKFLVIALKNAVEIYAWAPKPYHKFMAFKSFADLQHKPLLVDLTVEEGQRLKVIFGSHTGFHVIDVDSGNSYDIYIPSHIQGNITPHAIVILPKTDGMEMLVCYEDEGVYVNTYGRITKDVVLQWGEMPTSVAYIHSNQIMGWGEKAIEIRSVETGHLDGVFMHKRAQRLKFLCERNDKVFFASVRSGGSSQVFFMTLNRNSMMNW

CN1C(=O)/C(=C2/C(=O)Nc3ccccc32)c2ccccc21
Activity [1]: 88% | Activity [2]: 91% | Activity [3]: 87% | Activity [4]: 59% | Activity [5]: 98% | Activity [6]: 75% | Activity [7]: 78% | Activity [8]: 100% | Activity [9]: 100% | Activity [10]: 100% | Activity [11]: 71% | Activity [12]: 95% | Activity [13]: 90% | Activity [14]: 100% | Activity [15]: 50% | Activity [16]: 75% | Activity [17]: 81% | Activity [18]: 100% | Activity [19]: 100% | Activity [20]: 97% | Activity [21]: 100% | Activity (KG-1): Active | Activity [22]: 75% | Activity [23]: 100% | Activity [24]: 85% | Activity [25]: 89% | Activity [26]: 100% | Activity [27]: 91% | Activity [28]: 96% | Activity [29]: 33%
